Results on 32 compounds are retold here after PubChem BioAssay (NCI).

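The compound was tested at five concentrations on cells cultured in 96-well plates, with a 48-hour exposure period. At the GI50, growth is halved. TGI denotes the concentration required for complete inhibition of growth.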

Common to all, as to test: DTP human tumour cell line panel, 48 h
The subject of experiment [1] is COLO 205 colon.
The subject of experiment [2] is ACHN renal.
Experiment [3] has as its system SF-295 CNS.
In experiment [4] the test system is SR leukemia.
Experiment [5] concerns OVCAR-5 ovarian.
Experiment [6] deals with NCI/ADR-RES ovarian.
Experiment [7] has as its system HS 578T breast.
The subject of experiment [8] is MCF7 breast.
Experiment [9] has as its system PC-3 prostate.
Experiment [10] relates to BT-549 breast.

As usually defined, the TGI is the concentration at which net growth stops. Lower therefore signals greater sensitivity of the cells. As for `O=C(c1ccccc1)C1OC12C(=O)Nc1c(Cl)cc(Cl)cc12` (stereo not given), the TGI was 41 µM in experiment [1]; > 85.1 µM in experiment [2]; > 100 µM in experiment [3]; 31.1 µM in experiment [4]; > 100 µM in experiment [5].

Usually GI50 stands for the concentration at which growth is held to half of that of the control. Consider `CCOC(=O)c1cc2c(cc1Cl)SC(N(c1ccc(OC)cc1)S(=O)(=O)c1ccc(Cl)cc1)=NS2(=O)=O`, for which the GI50 in experiment [1] was 18.4 µM; in experiment [6] it was 31.5 µM; in experiment [2], 35 µM; in [3] it was 54.9 µM; in [7], 46.7 µM; in experiment [8], 25.6 µM. Further, the values for the GI50 in experiment [4], in experiment [5] and in experiment [9] were 24.8 µM, > 100 µM and 20 µM, respectively. For the same compound, the TGI in experiment [1] was 48.7 µM; in [6], 88.6 µM; in experiment [2], > 100 µM; in [3] it was > 100 µM; in experiment [7], > 100 µM; in [8] it was 68.2 µM. The values for the total growth inhibition concentration (TGI) in experiment [4], in experiment [5] and in experiment [9] were 98.6 µM, > 100 µM and 58.6 µM, respectively.

As to `O=C(O)CCC(N=Cc1nc(-c2ccccc2)oc1O)C(=O)O` (stereo not given), the TGI in [1], in experiment [2], in experiment [3], in [4] and in [5] was > 100 µM each time.

Take `CC(C)([NH-])CO.CC(C)([NH-])CO.[Cl][Cd][Cl]`: the GI50 in [1] is 26.1 µM; in experiment [2], > 100 µM; in [3] it was > 100 µM; in experiment [4] it was 20 µM; in experiment [5], 16.8 µM. Further, the TGI in experiment [1] is 55.8 µM; in experiment [2], > 100 µM; in experiment [3], > 100 µM; in [4], 44.5 µM; in experiment [5] it was 30.5 µM.

Consider `NC(=O)/N=C1/CCC2C3CCCC2C13`, for which the TGI in experiment [1], in experiment [2], in experiment [3], in [4] and in experiment [5] was > 100 µM throughout.

For the compound `COc1cc(N(C)C)c(OC)cc1/C=C\c1ccnc2ccccc12`, the TGI in [1] is > 10 µM; in [6], 7.66 µM; in [2], > 10 µM; in experiment [3] it was > 10 µM; in experiment [7] it was > 10 µM; in [8] it was > 10 µM. The TGI in experiment [5], in [9] and in experiment [10] was > 10 µM in each case.

For the compound `O=C(Nc1ccncc1)C(=O)c1cn(S(=O)(=O)c2ccc(Cl)cc2)c2ccccc12`, the GI50 was > 61.5 µM in [1]; 0.369 µM in [6]; 3.49 µM in experiment [2]; 1.68 µM in experiment [3]; 11.2 µM in experiment [7]; 0.354 µM in [8]. In addition, the GI50 in experiment [5] is > 30.1 µM; in experiment [9], 1.4 µM; in experiment [10] it was 3.75 µM. Further, the TGI is > 100 µM in [1]; > 100 µM in [6]; > 59.6 µM in [2]; 14.9 µM in experiment [3]; > 100 µM in [7]; 38.7 µM in experiment [8]. The TGI in [5] was > 95.8 µM; in experiment [9] it was > 55.5 µM; in experiment [10], > 80.5 µM.

For the compound `O=C(CCN1CCN(c2ccccc2)CC1)N1CCc2c([nH]c3ccccc23)C1c1cccnc1` (stereo not given), the TGI in experiment [1] was found to be 26.7 µM; in experiment [2], 40 µM; in experiment [4], 59 µM; in experiment [5], 34.6 µM.

As for `CN1C(=O)C2C3C=C4c5ccccc5N(c5ccccc5)C4(C2C1=O)[C@H]1C(=O)N(C)C(=O)[C@@H]31` (stereo not given in full), the TGI in experiment [1], in [2], in [3], in experiment [4] and in [5] was > 100 µM throughout.

Regarding `COC(=O)C(C(=O)OC)C1CCCC(=O)C1` (stereo not given), the TGI in [1], in experiment [2], in [3], in experiment [4] and in experiment [5] was > 100 µM each time.

`C/C(CC(=O)Nc1ccc(C)c(C)c1)=N\NC(N)=O`: the TGI in experiment [1], in [2], in experiment [3] and in experiment [5] was > 100 µM in each case.

Regarding `Cn1cnc([N+](=O)[O-])c1Sc1nccn1-c1cccc2ccccc12`, the TGI in experiment [1] is 30.3 µM; in [2], 94.2 µM; in [3] it was > 100 µM; in [4], 50.5 µM; in experiment [5] it was 76.1 µM.

In the case of `CC(=O)C1C(c2ccc(N(C)C)cc2)c2cc3c(cc2OC1(C)O)OCO3` (stereo not given), the TGI in experiment [1] is > 100 µM; in experiment [2], > 100 µM; in experiment [3] it was 71.2 µM.

As to `COc1ccc(-c2cc(=O)c3cc(OC)ccc3[nH]2)cc1`, the TGI in [1], in [2], in [3], in experiment [4] and in [5] was > 100 µM each time.

Consider `C=CC(=O)Nc1cc(C)ccc1Nc1nc(Nc2cc(OC)ncc2C)ncc1C(F)(F)F`, for which the GI50 in [1] is 0.0555 µM; in [6] it was 1.69 µM; in experiment [2], 0.397 µM; in experiment [3], 2.84 µM; in [7], 0.869 µM; in experiment [8] it was 0.864 µM. Moreover, the GI50 is 0.227 µM in experiment [5], 2.18 µM in experiment [9] and 0.585 µM in [10]. Moreover, the TGI was 1.48 µM in experiment [1]; > 26.5 µM in experiment [6]; 2.07 µM in experiment [2]; > 100 µM in [3]; 4.86 µM in [7]; > 32.8 µM in experiment [8]. Moreover, the TGI in experiment [5] was 2.14 µM; in experiment [9] it was > 100 µM; in experiment [10], 6.07 µM.

As for `Oc1ccc2ccccc2c1N=Nc1ccsc1`, the TGI in [1], in experiment [2], in experiment [3], in experiment [4] and in experiment [5] was > 100 µM in each case.

With `Cc1cccc(C(C)(C)C)c1NC(=O)CC1C(=O)Nc2ccccc2S1(=O)=O` (stereo not given), the TGI in [2] was determined as 22.7 µM; in [3] it was 20 µM; in experiment [4], 7.13 µM; in experiment [5], 27 µM.

With `C/C(=N\NS(=O)(=O)c1ccc(C)cc1)P(=O)(O)O`, the TGI in experiment [1], in experiment [6], in [2], in experiment [3], in [7] and in experiment [8] was > 100 µM in each case. The TGI in [5], in [9] and in [10] was > 100 µM throughout.

Consider `CC(=O)OC[C@@H](COC(=O)/C=C/c1ccc(O)cc1)OC1OC(CO)C(O)C(O)C1O` (stereo not given in full), for which the TGI in experiment [1], in experiment [2], in experiment [3], in experiment [4] and in experiment [5] was > 100 µM in each case.

For the compound `CC(Nc1ccc(S(=O)(=O)N=C(N)N)cc1)c1c2ccccc2nc2ccccc12` (stereo not given), the TGI was > 100 µM in experiment [1]; > 100 µM in experiment [2]; > 100 µM in experiment [3]; 65.7 µM in [4]; > 100 µM in experiment [5].

On to `O=C(c1ccccc1)C1OC1c1ccc([N+](=O)[O-])cc1` (stereo not given), for which the GI50 was 12.9 µM in experiment [1]; 2.58 µM in experiment [6]; 6.08 µM in experiment [2]; 4.76 µM in [3]; 3.33 µM in [7]; 3.16 µM in [8]. The GI50 in experiment [5] is 19.6 µM; in experiment [9], 9.9 µM; in experiment [10], 5.47 µM. The TGI in experiment [1] is 30.4 µM; in experiment [6], 9.36 µM; in [2], > 100 µM; in experiment [3] it was 46 µM; in [7] it was 35.2 µM; in [8], > 100 µM. The TGI was 56.9 µM in experiment [5], > 100 µM in experiment [9] and 44.3 µM in experiment [10].

As for `COC(=O)c1cccn1C(=O)n1cccc1`, the TGI in experiment [1], in experiment [2], in experiment [3], in [4] and in experiment [5] was > 100 µM each time.

In the case of `O=c1c(Br)cc2nc3ccccc3sc-2c1Br`, the TGI in experiment [1] was > 91 µM; in experiment [2], > 100 µM; in experiment [3] it was > 100 µM; in [4], > 100 µM; in experiment [5], > 100 µM.

For `Nc1nnnn1CCO`, the concentration for total growth inhibition (TGI) in experiment [1], in [6], in experiment [2], in experiment [3], in experiment [7] and in [8] was > 100 µM throughout. In addition, the TGI in experiment [5], in experiment [9] and in experiment [10] was > 100 µM in each case.

As for `CC(=O)OC(C)(C)/C(C)=C/C(=O)O[C@H]1C(=O)O[C@@H]2C[C@H]3[C@H](C)C(=O)C(O[C@@H]4O[C@H](CO)[C@@H](O)[C@H](O)[C@H]4O)=C[C@]3(C)[C@H]3[C@@H](O)[C@H](O)[C@@]4(C(=O)O)OC[C@]32[C@@H]14`, the GI50 in experiment [1] was > 100 µM; in [6], > 100 µM; in [2] it was > 100 µM; in experiment [7], > 100 µM; in experiment [8], 27.6 µM; in experiment [4] it was 48.5 µM. For the same compound, the GI50 in experiment [5] and in experiment [9] was > 100 µM in each case. The TGI in [1], in experiment [6], in [2], in [7], in [8] and in experiment [4] was > 100 µM throughout. In addition, the TGI in experiment [5] and in experiment [9] was > 100 µM in each case.

Consider `CCOC(=O)N1CCC(=O)C(CNC23CC4CC(CC(C4)C2)C3)C1` (stereo not given), for which the concentration for total growth inhibition (TGI) in experiment [1] was > 100 µM; in experiment [2] it was 34.8 µM; in experiment [3], > 100 µM; in [4] it was 51.6 µM; in experiment [5], > 100 µM.

For `Cc1ccc(NC(=O)CC2Sc3ccccc3NC2=O)c(C)c1` (stereo not given), the TGI was determined as 38.7 µM in experiment [1], 41 µM in experiment [2], 40.2 µM in experiment [3] and 73 µM in experiment [5].

Regarding `COC(=O)C(C(=O)C(=O)Nc1ccc([N+](=O)[O-])cc1[N+](=O)[O-])c1nc2ccc(Cl)cc2[nH]c1=O` (stereo not given), the TGI in experiment [1], in experiment [2], in experiment [3] and in experiment [5] was > 100 µM in each case.

As for `Cc1ccc(S(=O)(=O)NC2(C=O)CCCC3CCCCC32)cc1` (stereo not given), the TGI in experiment [1], in experiment [2] and in experiment [4] was > 100 µM each time.

On to `CCC[CH2][Sn]1([CH2]CCC)[O]CC(CN(C)Cc2ccccc2)[O]1` (stereo not given), for which the GI50 was 5.31 µM in experiment [1]; 11.2 µM in experiment [2]; 9.13 µM in experiment [3]; 4.31 µM in experiment [4]; 12.7 µM in experiment [5]. The TGI worked out at 16 µM in [1]; 23.3 µM in experiment [2]; 22.4 µM in [3]; 23.7 µM in experiment [4]; 25.3 µM in experiment [5].

For `CCOC(=O)C1c2[nH]c3ccccc3c2CCN1C(=O)c1ccc(OC)o1` (stereo not given), the TGI in experiment [1], in experiment [6], in experiment [2], in experiment [3], in experiment [7] and in [8] was > 10 µM in each case. Besides, the TGI in experiment [4], in experiment [5] and in experiment [9] was > 10 µM each time.

For the compound `O=c1ncc(F)cn1C1OC(CO)C(O)C1O` (stereo not given), the TGI in experiment [1] is > 37.9 µM; in experiment [2] it was > 100 µM; in experiment [3] it was > 100 µM; in experiment [4], > 46.8 µM; in experiment [5] it was > 100 µM.
